Measured values published in patent publication US6737383B1, “Herbicidal oxadiazolidines” (priority 1999, dated 2004).

Experiments:
[1] = tested on: bedstraw; assay: Test B pre/postemergence bedstraw; format: in vivo, Galium aparine
Method in brief: (§1)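 Test chemicals in a non-phytotoxic solvent mixture with surfactant were sprayed preemergence onto planted seeds and postemergence onto plants 2 to 18 cm tall (1- to 4-leaf stage). After twelve to sixteen days in a greenhouse, injury was visually rated against untreated controls from 0 (no effect) to 10 (complete control).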

[2] = tested on: blackgrass; assay: Test B pre/postemergence blackgrass; format: in vivo, Alopecurus myosuroides
Method in brief: as §1

[3] = tested on: surinam grass; assay: Test B pre/postemergence surinam grass; format: in vivo, Brachiaria decumbens
Method in brief: as §1

[4] = tested on: cocklebur; assay: Test B pre/postemergence cocklebur; format: in vivo, Xanthium strumarium
Method in brief: as §1

[5] = tested on: corn; assay: Test B pre/postemergence corn; format: in vivo, Zea mays
Method in brief: as §1

[6] = tested on: giant foxtail; assay: Test B pre/postemergence giant foxtail; format: in vivo, Setaria faberii
Method in brief: as §1

[7] = tested on: morningglory; assay: Test B pre/postemergence morningglory; format: in vivo, Ipomoea hederacea
Method in brief: as §1

[8] = tested on: pigweed; assay: Test B pre/postemergence pigweed; format: in vivo, Amaranthus retroflexus
Method in brief: as §1

[9] = tested on: rape; assay: Test B pre/postemergence rape; format: in vivo, Brassica napus
Method in brief: as §1

[10] = tested on: soybean; assay: Test B pre/postemergence soybean; format: in vivo, Glycine max
Method in brief: as §1

[11] = tested on: sugar beet; assay: Test B pre/postemergence sugar beet; format: in vivo, Beta vulgaris; details: for Plant response rating, Sugarbeets: Rate 250 g/ha
Method in brief: as §1

[12] = tested on: velvetleaf; assay: Test B pre/postemergence velvetleaf; format: in vivo, Abutilon theophrasti; details: for Plant response rating, Velvetleaf: Rate 250 g/ha
Method in brief: as §1

[13] = tested on: wheat; assay: Test B pre/postemergence wheat; format: in vivo, Triticum aestivum; details: for Plant response rating, Wheat: Rate 250 g/ha
Method in brief: as §1

[14] = tested on: wild oat; assay: Test B pre/postemergence wild oat; format: in vivo, Avena fatua; details: for Plant response rating, Wild oats: Rate 250 g/ha
Method in brief: as §1

[15] = tested on: rice; assay: Test B flood test rice; format: in vivo, Oryza sativa
Method in brief: (§2)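 Plants were grown to the 2-leaf stage before treatment with test chemical, then held in a greenhouse for twelve to sixteen days. Injury was visually rated against untreated controls on a 0–10 scale, where 0 is no effect and 10 is complete control.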

[16] = tested on: smallflower flatsedge; assay: Test B flood test smallflower flatsedge; format: in vivo, Cyperus difformis
Method in brief: as §2

[17] = Preemergence, Rate 62 g/ha, scale 0 to 10 (0 no effect, 10 complete control)
[18] = Preemergence, Rate 125 g/ha, scale 0 to 10 (0 no effect, 10 complete control)
[19] = Preemergence, Rate 250 g/ha, scale of 0 to 10 where 0 is no effect and 10 is complete control
[20] = Preemergence, Rate 500 g/ha, scale 0 (no effect) to 10 (complete control)
[21] = Rate 500 g/ha, Postemergence, scale 0 to 10, 0 no effect, 10 complete control
[22] = Postemergence, Rate 125 g/ha, scale of 0 to 10 where 0 is no effect and 10 is complete control
[23] = Postemergence, Rate 250 g/ha, scale 0 to 10, 0 no effect, 10 complete control
[24] = Rate 62 g/ha, Postemergence, scale of 0 to 10 where 0 is no effect and 10 is complete control
[25] = Rate 250 g/ha, Postemergence, scale 0 to 10, 0 is no effect, 10 is complete control
[26] = Preemergence, Rate 125 g/ha, 0 is no effect, 10 is complete control
[27] = Preemergence, scale of 0 to 10 where 0 is no effect and 10 is complete control
[28] = Postemergence, scale 0 to 10, 0 is no effect, 10 is complete control
[29] = Postemergence (flood test species), Rate 125 g/ha, scale of 0 to 10 where 0 is no effect and 10 is complete control
[30] = Rate 62 g/ha, Postemergence section, flood test species, scale of 0 to 10 where 0 is no effect and 10 is complete control
[31] = Rate 250 g/ha, Postemergence (flood test), scale 0 to 10, 0 is no effect, 10 is complete control
[32] = Rate 500 g/ha, listed under Postemergence (flood test species), scale 0 to 10, 0 no effect, 10 complete control

CCc1noc(C)c1-n1c(=O)on(C(=O)N(c2ccc(F)cc2)C(C)C)c1=O [Compound 101]
Bedstraw plant response rating [1, 17]: 0
Plant response rating, Bedstraw [1, 18]: 0
Plant response rating, Bedstraw [1, 19]: 0
Bedstraw plant response rating [1, 20]: 0
Bedstraw plant response rating [1, 21]: 0
Blackgrass plant response rating [2, 22]: 0
Blackgrass plant response rating [2, 23]: 0
Blackgrass plant response rating [2, 17]: 0
Plant response rating, Blackgrass [2, 18]: 0
Plant response rating, Blackgrass [2, 19]: 0
Blackgrass plant response rating [2, 20]: 0
Blackgrass plant response rating [2, 24]: 0
Blackgrass plant response rating [2, 21]: 0
B. signalgrass plant response rating ([3]; Postemergence, Rate 62 g/ha, scale 0 to 10, 0 is no effect, 10 is complete control): 0
B. signalgrass plant response rating [3, 23]: 0
B. signalgrass plant response rating [3, 17]: 0
Plant response rating, B. signalgrass [3, 18]: 0
Plant response rating, B. signalgrass [3, 19]: 0
B. signalgrass plant response rating [3, 20]: 0
B. signalgrass plant response rating ([3]; Rate 125 g/ha, Postemergence, scale 0 to 10, 0 no effect, 10 complete control): 0
B. signalgrass plant response rating ([3]; Rate 500 g/ha, Postemergence, scale of 0 to 10 where 0 is no effect and 10 is complete control): 0
Cocklebur plant response rating [4, 22]: 0
Cocklebur plant response rating [4, 23]: 0
Cocklebur plant response rating [4, 17]: 0
Plant response rating, Cocklebur [4, 18]: 0
Plant response rating, Cocklebur [4, 19]: 0
Cocklebur plant response rating [4, 24]: 0
Cocklebur plant response rating [4, 21]: 0
Corn plant response rating [5, 22]: 0
Corn plant response rating [5, 23]: 0
Corn plant response rating [5, 17]: 0
Plant response rating, Corn [5, 18]: 0
Plant response rating, Corn [5, 19]: 0
Corn plant response rating [5, 20]: 0
Corn plant response rating [5, 24]: 0
Corn plant response rating [5, 21]: 0
Giant foxtail plant response rating [6, 22]: 0
Giant foxtail plant response rating [6, 23]: 0
Giant foxtail plant response rating [6, 17]: 0
Plant response rating, Giant foxtail [6, 18]: 0
Plant response rating, Giant foxtail [6, 19]: 0
Giant foxtail plant response rating [6, 20]: 0
Giant foxtail plant response rating [6, 24]: 0
Giant foxtail plant response rating [6, 21]: 0
Morningglory plant response rating [7, 22]: 0
Morningglory plant response rating [7, 23]: 1
Morningglory plant response rating [7, 17]: 0
Plant response rating, Morningglory [7, 18]: 0
Plant response rating, Morningglory [7, 19]: 0
Morningglory plant response rating [7, 20]: 0
Morningglory plant response rating [7, 24]: 0
Morningglory plant response rating [7, 21]: 1
Redroot pigweed plant response rating [8, 22]: 0
Redroot pigweed plant response rating [8, 17]: 0
Plant response rating, Redroot pigweed [8, 18]: 0
Plant response rating, Redroot pigweed [8, 19]: 0
Redroot pigweed plant response rating [8, 20]: 0
Redroot pigweed plant response rating [8, 24]: 0
Plant response rating, Redroot pigweed [8, 25]: 0
Redroot pigweed plant response rating [8, 21]: 0
Rape plant response rating [9, 22]: 0
Rape plant response rating [9, 23]: 0
Rape plant response rating [9, 17]: 0
Plant response rating, Rape [9, 18]: 0
Plant response rating, Rape [9, 19]: 0
Rape plant response rating [9, 20]: 0
Rape plant response rating [9, 24]: 0
Rape plant response rating [9, 21]: 0
Soybean plant response rating [10, 22]: 2
Soybean plant response rating [10, 17]: 0
Plant response rating, Soybean [10, 18]: 0
Plant response rating, Soybean [10, 19]: 0
Soybean plant response rating [10, 20]: 0
Soybean plant response rating [10, 24]: 2
Plant response rating, Soybean [10, 25]: 3
Soybean plant response rating [10, 21]: 3
Sugarbeets plant response rating [11, 22]: 0
Sugarbeets plant response rating [11, 17]: 0
Sugarbeets plant response rating (0 to 10 scale) [11, 26]: 0
Plant response rating, Sugarbeets [11, 27]: 0
Sugarbeets plant response rating [11, 20]: 0
Sugarbeets plant response rating [11, 24]: 0
Plant response rating, Sugarbeets [11, 28]: 0
Sugarbeets plant response rating [11, 21]: 0
Velvetleaf plant response rating [12, 22]: 0
Velvetleaf plant response rating [12, 17]: 0
Velvetleaf plant response rating (0 to 10 scale) [12, 26]: 0
Plant response rating, Velvetleaf [12, 27]: 0
Velvetleaf plant response rating [12, 20]: 0
Velvetleaf plant response rating [12, 24]: 0
Plant response rating, Velvetleaf [12, 28]: 0
Velvetleaf plant response rating [12, 21]: 0
Wheat plant response rating [13, 22]: 0
Wheat plant response rating [13, 17]: 0
Wheat plant response rating (0 to 10 scale) [13, 26]: 0
Plant response rating, Wheat [13, 27]: 0
Wheat plant response rating [13, 20]: 0
Wheat plant response rating [13, 24]: 0
Plant response rating, Wheat [13, 28]: 0
Wheat plant response rating [13, 21]: 0
Wild oats plant response rating [14, 22]: 0
Wild oats plant response rating [14, 17]: 0
Wild oats plant response rating (0 to 10 scale) [14, 26]: 0
Plant response rating, Wild oats [14, 27]: 0
Wild oats plant response rating [14, 20]: 0
Wild oats plant response rating [14, 24]: 0
Plant response rating, Wild oats [14, 28]: 0
Wild oats plant response rating [14, 21]: 0
Rice plant response rating [15, 29]: 0
Rice plant response rating [15, 30]: 0
Plant response rating, Rice [15, 31]: 0
Rice plant response rating [15, 32]: 0
S. Flatsedge plant response rating [16, 29]: 0
S. Flatsedge plant response rating [16, 30]: 0
Plant response rating, S. Flatsedge [16, 31]: 0
S. Flatsedge plant response rating [16, 32]: 0
